The nature of series [1]: NO scavenging assay (sodium nitroprusside / Griess reagent). As to conditions: mean ± SEM of three experiments; 90 min, 546 nm. The method, then: The NO scavenging activity of all synthesized compounds was measured as previously described by Ho et al.[50] Briefly, 50 µL of different concentrations of the tested compounds (12.5, 25, 50,100, and 200 µg/mL) were pipetted into a 96-well plate. Then, 50 µL of 10-mM sodium nitroprussides dissolved in phosphate-buffered saline PBS (pH 7.4) were added to each well and the plate was incubated for 90 min at room temperature. Next, an equal volume of Griess reagent (1% of sulphanilamide and 0.1% of naphthyl ethylene diamine in 2.5% […]) was added to each well to measure the nitrite content. The absorbance of the formed pink-coloured chromophore was measured at λ 546 nm. DMSO and ascorbic acid were used as the negative and positive control, respectively. All tests were performed in triplicate. The percentage of NO scavenging activity was calculated according to the following equation: % of NO scavenging=[(Acontrol−Asample)/Acontrol]×100 where Acontrol is the absorbance of the control reaction (with all reagents except the test compound), and Asample is the absorbance of the test sample.
Background: The Griess reaction detects nitrite, a stable product of nitric oxide.

For series [2], the system named is Catalase (CAT) activity in liver. The experiment in a line: In vivo catalase (CAT) activity in liver homogenate. Also on record: species or system male Wistar albino rats. As to conditions: rat liver, 100 mg/kg orally for 3 days; for CAT: mean ± SEM, n = 6. Here is the method:
The complete progress of the experiment was conducted using male Wistar albino rats (200–250 g), delivered by the Institutional Breeding House, Egypt, reared and maintained in the animal house of the institution. The animals had free access to food and water ad libitum and maintained in a controlled environment under standard conditions of temperature and humidity with an alternating 12 h light and dark cycle for about a week for acclimatization. The protocol of the study was approved by the Animal Ethics Committee of the Faculty of Pharmacy, Helwan University (ethical code number: 05A2019; date: October 2019). The study was conducted in accordance with the EC, directive 86/609/EEC for animal experiments.
Rats are weighed at the beginning and at the end of experiment. Fifty-four male albino rats (n=6) were divided into nine different groups. Group I served as a control group and treated with the same volume vehicle only. Group II treated with 100 mg/kg of Ascorbic acid as standard antioxidant drug. Groups (III–IX) orally administered 100 mg/kg of compounds 3a, 4e, 5b, 5c, 6a, 6c, 6e, respectively, for 3 days. The animals were sacrificed by cervical dislocation 24 h after the last dose. Sacrificing is carried out at the same time of the day, to avoid the circadian variation in the level of tissue GSH[53]. Each liver was excised, weighed, rinsed in ice-cold normal saline and frozen for not more than 72 h await analysis of endogenous antioxidant status (GSH levels and CAT activity) and lipid peroxide concentrations. For performing biochemical assays, a 10% liver homogenate in 10 mM phosphate buffer was prepared using tissue homogeniser (Glas-Col®, Cat no.099C K6424, TERRE HAUTE, USA).
Catalase activity in 10% liver homogenates was determined spectrophotometrically according to Sinha AK[54]. The decrease in absorbance at 240 nm due to H2O2 decomposition was measured and the results were expressed in U/mg tissue.

The target in another series is T1, Soybean 15-LOX enzyme (Glycine max, UniProt P08170).
T1 construct: purchased Cayman Chemical 760700
T1 sequence (P08170 1-839): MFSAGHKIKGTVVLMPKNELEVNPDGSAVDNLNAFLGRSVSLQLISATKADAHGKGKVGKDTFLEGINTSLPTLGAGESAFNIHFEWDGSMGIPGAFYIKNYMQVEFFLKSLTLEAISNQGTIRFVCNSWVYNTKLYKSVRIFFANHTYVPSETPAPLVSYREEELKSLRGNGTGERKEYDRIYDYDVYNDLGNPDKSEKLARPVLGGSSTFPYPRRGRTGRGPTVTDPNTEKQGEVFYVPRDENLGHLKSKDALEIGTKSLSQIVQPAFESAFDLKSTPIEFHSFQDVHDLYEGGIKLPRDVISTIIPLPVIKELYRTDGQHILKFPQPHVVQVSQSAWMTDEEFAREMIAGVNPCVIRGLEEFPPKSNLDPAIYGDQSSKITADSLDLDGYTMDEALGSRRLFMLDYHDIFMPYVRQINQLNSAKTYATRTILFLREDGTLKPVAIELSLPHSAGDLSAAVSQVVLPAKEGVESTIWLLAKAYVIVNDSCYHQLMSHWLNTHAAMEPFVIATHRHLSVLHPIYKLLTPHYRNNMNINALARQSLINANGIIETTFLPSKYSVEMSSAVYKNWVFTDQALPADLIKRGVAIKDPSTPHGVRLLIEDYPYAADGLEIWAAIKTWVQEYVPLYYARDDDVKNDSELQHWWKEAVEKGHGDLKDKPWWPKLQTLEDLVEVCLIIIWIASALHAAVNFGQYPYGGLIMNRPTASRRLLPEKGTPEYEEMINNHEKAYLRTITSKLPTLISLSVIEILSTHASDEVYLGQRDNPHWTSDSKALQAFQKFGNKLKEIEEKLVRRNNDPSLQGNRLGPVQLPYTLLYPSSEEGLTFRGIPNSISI
The experiment in a line: In vitro lipoxygenase inhibition (Cayman lipoxygenase inhibitor screening assay kit). Type of series: biochemical. As to conditions: for IC50: mean ± SEM of three experiments, substrate arachidonic acid; for 15-LOX inhibition potency relative to quercetin: folds that of quercetin. The method, then: The assay was performed using Cayman’s lipoxygenase inhibitor screening assay kit (Catalog No. 760700, Cayman Chemical, USA) according to the manufacturer’s instructions. Briefly, 90 µL of 15-LOX was pipetted into a 96-well plate. Next, 10 µL of test compound at concentrations (2.5, 5.0 and 10 µM) dissolved in DMSO were added to each well. The reaction was initiated by adding 10 µL substrate (AA) and the plate was placed on a shaker for at least 5 minutes. Finally, 100 µL of chromogen (prepared according to manufacturer’s instructions) was added to each well to stop enzyme catalysis and develop the reaction. 100 µL of Assay buffer (0.1 M Tris-HCl, pH7.4) was used in blank wells. […] The absorbance of the solution was measured at λ 490–500 nm. The percentage inhibition was calculated according to the following equation: % inhibition =[(IA−Ainhibitor sample)/IA]×100 where (IA) is the 100% initial activity and (Ainhibitor sample) is the absorbance of the test sample. Dose–response curve was plotted between % inhibition and the drug concentration. The non-linear dose–response curve was used for calculating drug concentration showing 50% enzyme inhibition.

`c1ccc(C2=NNC(c3cn(-c4ccccc4)nc3-c3ccc4ccccc4c3)C2)cc1` (stereo not drawn) [Compound 3a, 3′-Naphthalen-2-yl-5,1′-diphenyl-3,4-dihydro-2H,1’H-[3,4′]bipyrazole]: the melting point fell in the range of 172 to 173 °C. In addition, the “NO IC50” value in series [1] was 27.65 ± 1.53 µg/mL. This compound also displayed a CAT in series [2] of 36.21 ± 3.49 U/mg tissue. Besides, the IC50 against Soybean 15-LOX enzyme was determined as 2230 ± 70 nM.

Compound `Clc1ccc(C2=NN(c3ccccc3)C(c3cn(-c4ccccc4)nc3-c3ccc4ccccc4c3)C2)cc1Cl` (stereo not drawn) [Compound 4e, 5-(3,4-Dichlorophenyl)-3′-naphthalen-2-yl-2,1′-diphenyl-3,4-dihydro-2H,1’H-[3,4′]-bipyrazole] came in with a melting point of 172 to 173 °C. Moreover, in series [1], the “NO IC50” value was found to be 57.01 ± 1.29 µg/mL. The compound further had a CAT in series [2] of 43.48 ± 4.51 U/mg tissue. This compound returned an IC50 against Soybean 15-LOX enzyme of 3530 ± 70 nM.

In the case of `COc1ccc(C2=NOC(c3cn(-c4ccccc4)nc3-c3ccc4ccccc4c3)C2)cc1` (stereo not drawn) [Compound 5b, 3-(4-Methoxyphenyl)-5-(3-naphthalen-2-yl-1-phenyl-1H-pyrazol-4-yl)-4,5-dihydro isoxazole], the melting point lay in the range of 197 to 198 °C. For the same compound, the “NO IC50” value in series [1] is recorded as 75.53 ± 1.43 µg/mL. Moreover, in series [2], the “Increase of CAT enzyme level compared to control group” value (“Increase of CAT enzyme level” below) is recorded as “about 101%” and the CAT is 48.19 ± 1.24 U/mg tissue. At Soybean 15-LOX enzyme, this compound registered a half-inhibitory concentration (IC50) of 4370 ± 90 nM.

The compound `Cc1ccc(C2=NOC(c3cn(-c4ccccc4)nc3-c3ccc4ccccc4c3)C2)cc1` (stereo not drawn) [Compound 5c, 5-(3-Naphthalen-2-yl-1-phenyl-1H-pyrazol-4-yl)-3-p-tolyl-4,5-dihydroisoxazole] showed a melting point of 181 to 182 °C. Besides, the “NO IC50” value in series [1] is reported as 38.99 ± 1.31 µg/mL. Besides, in series [2], the “Increase of CAT enzyme level” value is recorded as roughly 89% and the CAT is 45.42 ± 4.30 U/mg tissue. The IC50 on Soybean 15-LOX enzyme is 4230 ± 70 nM.

`NC(=S)N1N=C(c2ccccc2)CC1c1cn(-c2ccccc2)nc1-c1ccc2ccccc2c1` (stereo not drawn) [Compound 6a, 3′-Naphthalen-2-yl-5,1′-diphenyl-3,4-dihydro-1’H-[3,4′]bipyrazolyl-2-carbothioic acid amide] yielded a melting point of 198 to 199 °C. Moreover, the “NO IC50” value in series [1] is reported as 36.37 ± 0.75 µg/mL. Moreover, the CAT in series [2] amounted to 27.97 ± 3.46 U/mg tissue. Moreover, on Soybean 15-LOX enzyme, the “15-LOX inhibition potency relative to quercetin” value was 2.2 folds and the IC50 was found to be 1500 ± 60 nM.

For `Cc1ccc(C2=NN(C(N)=S)C(c3cn(-c4ccccc4)nc3-c3ccc4ccccc4c3)C2)cc1` (stereo not drawn) [Compound 6c, 3′-Naphthalen-2-yl-1′-phenyl-5-p-tolyl-3,4-dihydro-1’H-[3,4′]bipyrazolyl-2-carbo thioic acid amide], the melting point fell in the range of 184 to 185 °C. Further, in series [1], the “NO IC50” value was found to be 23.79 ± 0.83 µg/mL. This compound also showed a CAT in series [2] of 44.38 ± 2.81 U/mg tissue. In addition, on Soybean 15-LOX enzyme, the IC50 came out at 2100 ± 60 nM.

Compound `NC(=S)N1N=C(c2ccc(Cl)c(Cl)c2)CC1c1cn(-c2ccccc2)nc1-c1ccc2ccccc2c1` (stereo not drawn) [Compound 6e] had a melting point of 180 to 181 °C. For the same compound, in series [1], the “NO IC50” value came out at 71.39 ± 1.25 µg/mL. Also, in series [2], the “Increase of CAT enzyme level” value is given as roughly 141% and the CAT is given as 57.84 ± 3.50 U/mg tissue. Also, on Soybean 15-LOX enzyme, the “15-LOX inhibition potency relative to quercetin” value turned out to be 2.1 folds and the concentration for half-maximal inhibition (IC50) was 1570 ± 30 nM.

The term melting point denotes the temperature, or range, at which the solid turns liquid. For orientation: IC50 means the midpoint of a concentration-inhibition curve. A low value points to greater potency in that assay.

Source of the values: paper PMC7170299, “Design, synthesis, molecular modelling and biological evaluation of novel 3-(2-naphthyl)-1-phenyl-1H-pyrazole derivatives as potent antioxidants and 15-Lipoxygenase inhibitors” (Journal of Enzyme Inhibition and Medicinal Chemistry, 2020).
